What all share (test): MTT proliferation assay, single agent
Assay type in all cases: cell-based
For orientation: Formazan colour is commonly taken as a measure of viable cells.

One assay concerns CD74-ROS1 (wt). The settings on record: Lung ADC, ROS1 translocated, 72 h, mean of several independent experiments. As for the experimental part:
(§1) The compound of formula (1) was tested using a Thiazolyl Blue Tetrazolium Bromide (MTT) proliferation assay in a panel of tumor cell lines of different origins.
(§2) All culture materials were obtained from Biological Industries (Kibbutz Beit Haemek, Israel) or Invitrogen (Paisley, Scotland, United Kingdom). The non-tumor cell lines HF and HACAT were provided by Vall d'Hebrón Hospital and GmbH, respectively. The PC9 naïve cell line was provided by Mayumi Ono and, the H3122, HCC78 and 11-18 by Daniel Costa. The PC9-GR1, PC9-GR2, PC9-GR3, PC9-GR4, PC9-GR5 and PC9-ER cell lines were derived in house by exposing the parental PC9 cell line to increasing concentrations of erlotinib (ER) or gefitinib (GR). The rest of the cell lines in which compound (1) was tested were purchased from ATCC (H23, H1975, H2228, A549, H460, Calu-6, H1650, SK-MES-1, EBC1, SNU1, AGS, N87, PC3, BxPC3, DLD1, HT29, SW48, SCC9,FaDu, AU565, Gingival, Prostate, SU-DHL-1 and A431). All cell lines were maintained in RPMI medium supplemented with 10% FBS, 50 µg/mL penicillin-streptomycin and 2 mM L-Glutamine. All cells were grown in a humidified atmosphere with 5% CO2 at 37°C.
(§3) Cell viability in response to single agent treatment was assessed by the Thiazolyl Blue Tetrazolium Bromide (MTT) (Sigma, St Louis, MO) assay. Cells from each cell line were seeded at 2000 to 10000 per well in 96-well plates. […] After treatment, cells were incubated with medium containing MTT (0.75 mg/mL in medium) for 1-2 h at 37°C. Culture medium with MTT was removed and formazan crystals reabsorbed in 100 µL DMSO (Sigma, St. Louis, MO). Cell viability was determined by measuring the absorbance at 492 nm, using a microplate reader (BioWhittaker, Walkersville, MD).
(§4) The IC50s shown are the mean of several independent experiments. Standard errors are also listed Table 2. SCC means squamous cell carcinoma, ADC means adenocarcinoma, GBM means glioblastoma.

The test system of the next assay is DLD1. The settings on record: Homo sapiens, DLD-1, Colon ADC, KRAS, 72 h, mean of several independent experiments. How it is done:
as §1, §2, §3, §4

A further assay relates to EBC-1. The settings on record: Homo sapiens, SCC Lung, c-Met ampl, 72 h, mean of several independent experiments. As for the experimental part:
as §1, §2, §3, §4

For another assay, the system named is H11-18. The settings on record: Lung ADC, EGFR ex21, 72 h, mean of several independent experiments. How it is done: as §1, §2, §3, §4
The next assay deals with H1650. The settings on record: Homo sapiens, NCI-H1650, Lung ADC, EGFR ex19, 72 h, mean of several independent experiments. How it is done:
as §1, §2, §3, §4

Another assay has as its system H1703. The settings on record: Homo sapiens, NCI-H1703, SCC Lung, DDR2 wt, 72 h, mean of several independent experiments. As for the experimental part: as §1, §2, §3, §4
For another assay, the system named is H2228. The settings on record: Homo sapiens, NCI-H2228, Lung ADC, ALK-EML4 (v3), 72 h, mean of several independent experiments. How it is done: as §1, §2, §3, §4
The subject of a further assay is H23. The note with it: Homo sapiens, NCI-H23, Lung ADC, KRAS, 72 h, mean of several independent experiments. How it is done:
as §1, §2, §3, §4

The test system of another assay is H460. The settings on record: Homo sapiens, NCI-H460, Lung ADC, KRAS, 72 h, mean of several independent experiments. How it is done: as §1, §2, §3, §4
For a further assay, the system named is HCC366. The note with it: SCC Lung, DDR2 mutated, 72 h, mean of several independent experiments. As for the experimental part: as §1, §2, §3, §4
In the next assay the test system is I638F+T654M. The note with it: SCC Lung, DDR2 mutated, 72 h, mean of several independent experiments. As for the experimental part: as §1, §2, §3, §4
In another assay the test system is I638F. The settings on record: SCC Lung, DDR2 mutated, 72 h, mean of several independent experiments. How it is done:
as §1, §2, §3, §4

For another assay, the system named is L239R. The settings on record: SCC Lung, DDR2 mutated, 72 h, mean of several independent experiments. How it is done: as §1, §2, §3, §4
Another assay has as its system PC3. The note with it: Homo sapiens, PC-3, Prostate ADC, DDR2 wt, 72 h, no standard error printed. How it is done:
as §1, §2, §3, §4

Another assay relates to PC9-GR1. The settings on record: Lung ADC, EGFR ex19, 72 h, mean of several independent experiments. As for the experimental part:
as §1, §2, §3, §4

Another assay relates to PC9-GR3. The settings on record: Lung ADC, EGFR ex19, 72 h, mean of several independent experiments. How it is done: as §1, §2, §3, §4
A further assay concerns PC9-GR5. The settings on record: Lung ADC, EGFR ex19, 72 h, mean of several independent experiments. As for the experimental part:
as §1, §2, §3, §4

The next assay deals with U118MG. The note with it: Homo sapiens, U-118-MG, GBM, ROS1-FIG, 72 h, mean of several independent experiments. As for the experimental part:
as §1, §2, §3, §4

pIC50: −log10 of the molar value.

The term pIC50 denotes −log10 of the IC50, conventionally taken in molar units. A higher pIC50 goes with a low IC50. `Cn1c(=O)c(-c2c(Cl)cccc2Cl)cc2c(N)nc(Nc3ccccc3)nc21` [Compound (1), 4-amino-6-(2,6-dichlorophenyl)-8-methyl-2-(phenylamino)-pyrido[2,3-d]pyrimidin-7(8H)-one]: the pIC50 in the assay on CD74-ROS1 (wt) was 5.72; with DLD1, 6.00; with EBC-1, 5.29; in the assay on H11-18, 5.31; in the assay with H1650, 5.57; in the assay with H1703, 6.26. The negative-log IC50 (pIC50) in the assay with H2228 was 5.87; with H23 it was 5.80; in the assay on H460, 6.00; in the assay with HCC366, 6.08; with I638F+T654M, 6.11; in the assay with I638F it was 7.00. For the same compound, the pIC50 in the assay on L239R was 6.12; in the assay on PC3, 5.47; in the assay with PC9-GR1, 5.84; with PC9-GR3 it was 6.06; with PC9-GR5, 5.79; with U118MG, 5.59.

The record behind these values is EP3120851A1, “4-AMINO-6-(2,6-DICHLOROPHENYL)-8-METHYL-2-(PHENYLAMINO)-PYRIDO[2,3-D]PYRIMIDIN-7(8H)-ONE FOR TREATMENT OF SOLID CANCERS” (Pangaea Biotech S.L., priority 2015, dated 2017).
